US4652553A, “Steroidal glycolipids as host resistance stimulators” (priority 1985, dated 1987)

System: Pseudomonas aeruginosa
Test: In vivo protection of cyclophosphamide-immunocompromised mice against Pseudomonas aeruginosa (LD50, protective index)
Set-up: species or system Pseudomonas aeruginosa (Immunotype 1); CFl female mice
Details: Table 3; cyclophosphamide-treated mice; dose not stated in table (initial test dose 40 mg per kg)
Protocol: Groups of 15-20 CFl femal mice (Charles River Breeding, Cambridge, MA) weighing 22-28 gm were injected intraperitoneally (i.p.) with cyclophosphamide (Cytoxan; CY) at 250 mg per kg body weight. One to two hours later they were typically injected again with the test material by the route specified. Four days later, the mice were divided into groups of five, each of which were injected i.p. with a different dilution of a suspension of Pseudomonas aeruginosa (Immunotype 1). The number of survivors was determined periodically and an estimate was made of the number of CFU of Pseudomonas organisms necessary to cause 50% lethality by the cumulative method of L. J. Reed and H. Muench (Am. J. Hygiene 27 (1938) 493-497). A protective index (P.I.) was defined as the LD50 for the mice receiving cyclophosphamide and the test compound divided by the LD50 for the mice recieving cyclophosphamide alone. All control mice were injected with aqueous vehicle in the same route and schedule as the test animals.
All compounds for dosing were suspended in a sterile medium referred to as "aqueous vehicle" which contains 0.9% sodium chloride, 0.5% carboxymethyl cellulose, 0.4% Tween 80, and 0.9% benzyl alcohol unless otherwise stated. Test materials were evaluated via subcutaneous (s.c.), i.p., intramuscular (i.m.), orally (p.o.). and intravenous (i.v.) routes of administration. […]

## C[C@H](N)[C@H]1CC[C@H]2[C@@H]3CC=C4C[C@@H](OCCCCCCS[C@@H]5O[C@H](CO)[C@@H](O)[C@H](O)[C@@H]5O)CC[C@]4(C)[C@H]3CC[C@]12C [Example 14, 6-(20S-Amino-pregn-5-en-3β-yloxy)hexyl 1-thio-β-D-mannopyranoside]
  Protective Index (log): 4.37 log
